Data taken from patent US8344153B2, “Inhibitors of phosphatidylinositol 3-kinase” (Vertex Pharmaceuticals Incorporated, priority 2009, dated 2013).
pKi: −log10 of the molar value.

Target: PI3K-γ (Homo sapiens, UniProt P48736)
Assay: PI3K Inhibition Assay (33P-ATP, PI(4,5)P2 substrate, filter plate scintillation counting)
Assay type: biochemical
Conditions: competitive tight binding Ki fit; 3 μM ATP, 30 μM PI(4,5)P2, 2 nM final enzyme, 30 min at 25° C.; read-out: Ki for the inhibition of PI3Ky
Protocol: One test well also contained 1.5 μL of DMSO with no compound. […] To initiate the reaction, 50 μL of ATP Mix [20 mM MgCl2, 6 μM ATP (100 μCi/μmole ^33P-ATP)] was added each well, followed by incubating the wells for 30 min. at 25° C. Final concentrations in each well were 50 mM HEPES 7.5, 10 mM MgCl2, 25 mM NaCl, 5 mM DTT, 0.1 mg/mL BSA, 30 μM PI(4,5)P2, 3 μM ATP, and the PI3K isoform of interest (see Table 3). Final compound concentrations in each well ranged from 10 μM to 1 nM.
After incubation, the reactions in each well were quenched by addition of 50 μL of stop solution [30% TCA/Water, 10 mM ATP]. […] 50 μL of scintillation fluid was added to each well and the plate read on a Perkin-Elmer TopCount™ NXT liquid scintillation counter to obtain ^33P-counts representing inhibition values.

Chain of PI3K-γ (P48736 whole entry, species assumed): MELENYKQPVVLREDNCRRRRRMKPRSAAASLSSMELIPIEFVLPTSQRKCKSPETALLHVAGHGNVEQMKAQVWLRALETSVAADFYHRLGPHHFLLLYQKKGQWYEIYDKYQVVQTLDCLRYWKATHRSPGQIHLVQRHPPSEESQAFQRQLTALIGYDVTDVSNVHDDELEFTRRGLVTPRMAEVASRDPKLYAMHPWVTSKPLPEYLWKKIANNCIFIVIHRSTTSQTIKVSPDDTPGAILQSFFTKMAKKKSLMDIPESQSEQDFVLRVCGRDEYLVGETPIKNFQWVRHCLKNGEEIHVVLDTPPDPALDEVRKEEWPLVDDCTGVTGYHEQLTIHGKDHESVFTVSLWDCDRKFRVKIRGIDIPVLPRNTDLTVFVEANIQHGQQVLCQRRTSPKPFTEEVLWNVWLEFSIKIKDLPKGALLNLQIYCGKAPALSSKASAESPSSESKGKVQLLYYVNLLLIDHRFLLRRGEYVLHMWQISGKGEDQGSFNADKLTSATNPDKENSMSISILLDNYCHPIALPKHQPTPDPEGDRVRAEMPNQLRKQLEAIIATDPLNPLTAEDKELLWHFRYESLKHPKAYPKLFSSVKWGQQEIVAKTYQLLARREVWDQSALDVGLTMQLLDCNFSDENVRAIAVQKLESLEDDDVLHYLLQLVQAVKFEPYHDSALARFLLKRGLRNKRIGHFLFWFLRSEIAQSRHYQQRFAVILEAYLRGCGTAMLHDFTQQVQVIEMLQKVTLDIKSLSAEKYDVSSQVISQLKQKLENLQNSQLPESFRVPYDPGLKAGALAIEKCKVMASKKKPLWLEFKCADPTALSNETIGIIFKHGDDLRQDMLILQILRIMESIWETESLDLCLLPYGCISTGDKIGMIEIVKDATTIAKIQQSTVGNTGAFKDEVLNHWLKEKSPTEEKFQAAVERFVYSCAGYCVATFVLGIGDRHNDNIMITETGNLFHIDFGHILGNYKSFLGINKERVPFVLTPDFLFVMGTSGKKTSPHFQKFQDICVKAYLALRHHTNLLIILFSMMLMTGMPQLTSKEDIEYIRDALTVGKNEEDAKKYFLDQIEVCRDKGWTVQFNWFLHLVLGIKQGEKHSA

CCOCCNC(=O)Nc1nc(C)c(C#Cc2ccncc2)s1 [Compound 26]
pKi: > 7.30
